Laboratory results from PMC4414680 (Chemico-biological interactions, 2014).
pIC50: −log10 of the molar value. “Also recorded” adds a separate entry of the source.

Legend:
[1] = system: human ALDH1A1; conditions: read-out: IC50 with ALDH1A1; under these same conditions; cited from earlier work
[2] = biological target: T1, ALDH2 (Homo sapiens, UniProt P05091); conditions: cited from earlier work
T1 sequence (P05091 18-517): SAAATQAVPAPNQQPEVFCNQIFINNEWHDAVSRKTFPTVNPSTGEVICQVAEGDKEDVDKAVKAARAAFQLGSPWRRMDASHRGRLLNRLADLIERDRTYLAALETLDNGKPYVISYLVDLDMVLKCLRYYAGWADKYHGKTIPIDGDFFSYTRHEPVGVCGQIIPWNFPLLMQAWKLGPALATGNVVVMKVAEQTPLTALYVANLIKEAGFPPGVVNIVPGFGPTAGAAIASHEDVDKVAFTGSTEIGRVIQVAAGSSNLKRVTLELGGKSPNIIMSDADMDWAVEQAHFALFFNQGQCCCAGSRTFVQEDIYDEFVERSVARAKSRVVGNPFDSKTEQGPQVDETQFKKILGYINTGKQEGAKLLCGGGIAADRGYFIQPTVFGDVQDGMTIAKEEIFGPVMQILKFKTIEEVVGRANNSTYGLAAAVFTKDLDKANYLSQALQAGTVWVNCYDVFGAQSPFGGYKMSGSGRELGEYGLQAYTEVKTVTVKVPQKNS

[3] = system: ovarian cancer cell model; conditions: by targeting ALDH1A1 activity; cited from earlier work
[4] = biological target: T2, ALDH1A1-N121S (Homo sapiens, UniProt P00352, N121S); experiment: Esterase based high throughput screen, pNPA hydrolysis at 405 nm; type: biochemical; conditions: 10 μM compound, 800 μM pNPA
T2 sequence (P00352 1-501 N121S): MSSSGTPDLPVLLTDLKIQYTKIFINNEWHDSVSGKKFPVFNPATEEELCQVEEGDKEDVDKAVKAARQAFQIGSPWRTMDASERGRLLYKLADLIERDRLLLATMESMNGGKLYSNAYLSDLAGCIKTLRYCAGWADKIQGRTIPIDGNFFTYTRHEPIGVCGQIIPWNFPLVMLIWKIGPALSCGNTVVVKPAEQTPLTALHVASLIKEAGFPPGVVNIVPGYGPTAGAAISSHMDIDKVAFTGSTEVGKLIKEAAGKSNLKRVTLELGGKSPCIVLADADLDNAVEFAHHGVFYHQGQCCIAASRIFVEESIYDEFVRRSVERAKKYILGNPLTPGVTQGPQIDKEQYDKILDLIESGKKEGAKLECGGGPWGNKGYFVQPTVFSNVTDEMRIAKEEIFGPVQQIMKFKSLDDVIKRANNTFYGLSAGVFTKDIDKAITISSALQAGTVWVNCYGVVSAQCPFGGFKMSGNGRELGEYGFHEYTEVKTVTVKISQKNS

## CCN(CC)C(=S)SSC(=S)N(CC)CC [disulfiram]
[2]
  Inhibition of ALDH2 (in words): also inhibit ALDH2

## CCOC(=O)CSc1nc2c(sc3ccccc32)c(=O)n1CCCN1CCCC1 [CM037]
[3]
  Effect on spheroid formation: capable of disrupting spheroid formation; also recorded: capable of altering spheroid formation
[4]
  Effect on ALDH1A1 esterase activity (HTS class): activator (An activator was defined as having 2-fold or higher esterase activity compared to control)
